Test results reported in US7453010B2, “Phenylcyclohexylpropanolamine derivatives, preparation and therapeutic application thereof” (Sanofi Aventis, priority 2002, dated 2008).

melting point | SMILES
85 to 90 °C | CS(=O)(=O)Nc1cc(OC[C@@H](O)CN[C@H]2CC[C@H](c3ccc(O)cc3)CC2)ccc1O [Compound 1, trans-N-{2-Hydroxy-5-[((2S)-2-hydroxy-3-{[4-(4-hydroxyphenyl)cyclohexyl]amino}propyl)oxy]phenyl}methanesulfonamide]
60 to 70 °C | CCOC(=O)COc1ccc([C@H]2CC[C@H](NC[C@H](O)COc3ccc(O)c(NS(C)(=O)=O)c3)CC2)cc1 [Compound 2, Ethyl trans-(4-{4-[((2S)-2-hydroxy-3-{4-hydroxy-3-[(methylsulfonyl)amino]phenoxy}propyl)amino]cyclohexyl}phenoxy)acetate]
